Reference: PMC11148078, “Potent activity of polymyxin B is associated with long-lived super-stoichiometric accumulation mediated by weak-affinity binding to lipid A” (Nature Communications, 2024)
Entries after “also recorded” stand apart in the source; their conditions may differ. Bridge positions count the residues as written; N and C are the ends. Square brackets hold non-standard residues; d marks the D form. Peptide text beside a SMILES is read from it. * marks the point of attachment. ξ: configuration not given here. Hexanoyl(4ξ-Me) = CCC(C)CCC(=O)*; dOrn = NCCC[C@@H](N)C(=O)O; Orn = NCCC[C@H](N)C(=O)O

Key:
E. coli PmrA^G53E = type: cell-based
Description: (§1) Bacterial strains and plasmids are listed in SI Table S5. LB growth media was prepared according to manufacturer’s instructions and supplemented with 0.2% arabinose and carbenicillin (50 μg/mL) for the strains containing pBAD24-mcr1 plasmid. Cultures were started by inoculating 3 ml LB with 1–2 colonies from fresh overnight plates and grown at 37 °C until in log phase. Modified minimal inhibitory concentration (MIC) assays were performed in 96-well round bottom polystyrene plates (Corning) with a final volume of 100 µl in LB supplemented with tween-80 at 0.0005%. […] Polymyxin B sulfate (TCI Co. Ltd), polymyxin B nonapeptide (PMBN) (Sigma), and brevicidine (Genentech) were diluted directly in the assay plates. Bacteria were diluted in LB with tween-80 0.0005% and added to a final OD600 of 0.0005. Growth was measured via OD600 on a SpectraMax M5 plate reader after overnight static growth at 37 °C with humidity.

E. coli mcr1 = type: cell-based; conditions: pBAD-mcr-1
Description: as §1

S. aureus WT = type: cell-based; conditions: LB + 0.0005% tween-80, overnight 37 °C
Description: as §1

E. coli WT+rifampicin = test: Rifampicin potentiation / outer membrane permeability, wild-type E. coli; type: cell-based; conditions: rifampicin 1.56 µM; LB + 0.0005% tween-80, overnight 37 °C
Description: as §1

[1] = system: E. coli PmrA^G53E+rifampicin; test: Rifampicin potentiation / outer membrane permeability, E. coli PmrA^G53E; type: cell-based
Description: as §1

E. coli mcr-1+rifampicin = test: Rifampicin potentiation / outer membrane permeability, E. coli mcr-1; type: cell-based
Description: as §1

wt-OMVs [2] = test: Single-cycle kinetic SPR binding to immobilized wt-OMVs; parameters: species or system E. coli; conditions: serial doubling injections, C1 chip
Description: (§2) Polymyxin B was covalently attached to a C1 chip (Series S Sensor Chip C1, Cytiva) using an amine coupling kit (Cytiva). Cartoon in Fig. 1A created with BioRender (biorender.com). Briefly, equal amounts of reagents N-hydroxysuccinimide and 1-ethyl-3-(3-dimethylaminopropyl) carbodiimide hydrochloride were mixed as per manufacturer’s instructions and immediately added to the gold chip surface for 2 min, washed with distilled deionized water, and dried. Sufficient polymyxin B (1 mM in 1 M HEPES buffer, pH 8) was added to cover the chip surface, incubated at room temperature for 1 h, washed as before, and then incubated with 1 M ethanolamine hydrochloride-NaOH, pH 8.5, for 1 min. The chip surface was washed with water, dried as previously described, immediately loaded into a Biacore S200, and primed with running buffer (described below) to equilibrate the system. C1 chips were used for multiple runs and discarded upon removal from the Biacore S200.
(§3) SCK C1-chip SPR experiments were performed in running buffer (Dulbecco’s phosphate-buffered salt solution 1x without calcium or magnesium (Fisher Scientific), pH 7.4, with 0.0005% tween-80 (Sigma) passed through a 0.2 µm filter) unless otherwise indicated. Inclusion of tween-80 prevented loss of polymyxin to the plastics[34] (also see Supplementary Information Methods). For experiments with brevicidine, which was suspended in DMSO, 0.125% DMSO was included in the running buffer. OMVs were diluted from frozen stocks to approximately 20–30 µg/ml protein in the OMV buffer. Capture of OMVs was performed at a low flow rate ([…]) for 300 s over the test channel(s) followed by a 300 s stabilization period. All subsequent steps were at a flow rate of […]. For single cycle kinetics, two-fold dilutions were injected over the channel(s) loaded with OMVs and a reference channel without OMVs for 30 s contact and 480 s dissociation. To regenerate chips, 0.5% SDS (desorb 1, Cytiva) was injected into all channels for 60 s at 30 µl/ml twice, with an extra buffer wash and four carry-over control steps to prevent residual SDS from disrupting the following cycle.
All single-cycle kinetic SPR traces shown were double-referenced (unless indicated) within the Biacore S200 Evaluation Software 1.0, exported as a.txt file, and imported (decimated) into GraphPad Prism (version 9.3.1 for Mac, GraphPad Software, San Diego, CA). For clarity, in some cases individual outlier data points (at buffer transitions) were removed when this would not change the overall data or conclusions.

[3] = system: resistant-OMVs (E. coli PmrA^G53E); test: Single-cycle kinetic SPR binding to immobilized resistant-OMVs; conditions: serial doubling injections, C1 chip
Description: as §2
as §3, with “To regenerate chips, 0.5% SDS (desorb 1, Cytiva) was injected into all channels for 60 s at 30 µl/ml twice, with an extra buffer wash and four carry-over control steps to prevent residual SDS from disrupting the following cycle.” left out

wt-OMVs [4] = test: SPR chaser analysis (residence time), wt-OMVs; type: binding, E. coli; conditions: 25 °C, n≥3, (SD)
Description: (§4) The off-rate of the tightly bound fraction was estimated using a chaser analysis, where OMVs were pre-saturated with polymyxin B and then re-saturated after an extended time interval (Supplementary Information Fig. S11A). […] A t1/2 of >6 h was determined for polymyxin B binding to OMVs at both 25 and 37 °C (SI Table S3). The t1/2 of brevicidine, also measured by chaser analysis, was approximately 1 h on both wt-OMVs and polymyxin-resistant-OMVs (SI Table S3).
(§5) Binding and kinetic analysis of SPR-OMV assays […]
To determine the residence time of the test compound with OMVs, the ‘chaser method’ was used because it accounts for drift that can occur in the system over long incubation times 13. OMVs were loaded onto the chip as described above then 5 µM polymyxin B was injected using the ‘low-sample consumption’ setting for 300 sec ([…] flow rate), followed by a 240 sec dissociation time. A second dose of 5 µM polymyxin B was then injected for 60 sec ([…]) to assure saturation followed by a 2 h dissociation time prior to the ‘chaser’, a 60 sec pulse of 5 µM polymyxin B. The RUs of associated polymyxin B were determined 120 sec after the start of the dissociation. The change in RUs from before dosing to after the second dose, and the change in RUs from prior to the ‘chaser’ dose and 120 sec after the start of its dissociation were used to calculate the fraction occupancy of the material and the residence time/half-life as described 13. […]
PMBN) to LPS for 20 min. […]
20 sec with a Solarus plasma cleaner (Gatan). Grids were blotted and plunge-frozen by Vitrobot (ThermoFisher Scientific, Waltham, MA) at 4°C, 100% relative humidity, blot force 7, and a 3 sec […]
TEM data collection was performed using a Titan Krios G3i (ThermoFisher Scientific, Waltham, MA) operating at 300 kV equipped with a BioQuantum energy filter and a K3 Summit direct electron detector operating at a nominal magnification of 105,000x (0.838 Å/pixel), an energy slit width of 20 eV, defocus range -1 to -3 μm, 3-sec exposure time, 60 frames per movie, a total electron fluence of ~64 e/Å2. Microscope and camera automation was accomplished by SerialEM14, and image processing (motion correction & CTF estimation) was performed using […]
(§6) Standard cryo-EM image processing software and methods were incompatible with the vesicle images, so a blinded visual scoring method for image analysis was used. Approximately 50 images from each sample and treatment condition that each contained at least one OMV (pooled in a single folder and blinded) were scored for number of vesicles touching (0-10+), and if the vesicle membranes appeared disrupted or abnormal. Sampling was not completely random as images of vesicles could not be obtained from areas with significant clumping. Images shown in […]

resistant-OMVs = test: SPR chaser analysis (residence time), resistant-OMVs; type: binding, E. coli
Description: as §4, §5
To determine the residence time of the test compound with OMVs, the ‘chaser method’ was used because it accounts for drift that can occur in the system over long incubation times 13. […] A second dose of 5 µM polymyxin B was then injected for 60 sec ([…]) to assure saturation followed by a 2 h dissociation time prior to the ‘chaser’, a 60 sec pulse of 5 µM polymyxin B. The RUs of associated polymyxin B were determined 120 sec after the start of the dissociation. […]
as §6, with “abnormal.” for “abnormal. Sampling was not completely random as images of vesicles could not be obtained from areas with significant clumping. Images shown in”

| Molecule | antibacterial activity (E. coli PmrA^G53E) | antibacterial activity (E. coli mcr1) | MIC (S. aureus WT) [µM] | MIC in presence of rifampicin (E. coli WT+rifampicin) [µM] | MIC in presence of rifampicin [1] [µM] | MIC in presence of rifampicin (E. coli mcr-1+rifampicin) [µM] | SPR binding profile (wt-OMVs [2]) | SPR binding profile [3] | t1/2 (wt-OMVs [4]) | t1/2 (resistant-OMVs; 25 °C, OMVs from PmrA^G53E and pmcr1 strains (n=2 each), (SD)) | t1/2 of bound complex (resistant-OMVs; polymyxin-resistant-OMVs) |
| --- | --- | --- | --- | --- | --- | --- | --- | --- | --- | --- | --- |
| CCC(C)CCC(=O)N[C@H](CC(N)=O)C(=O)N[C@H](Cc1ccc(O)cc1)C(=O)N[C@H](Cc1c[nH]c2ccccc12)C(=O)N[C@H](CCCN)C(=O)N[C@@H](CCCN)C(=O)NCC(=O)N[C@H](CCCN)C(=O)N[C@@H](Cc1c[nH]c2ccccc12)C(=O)N[C@@H]1C(=O)N[C@@H]([C@@H](C)CC)C(=O)NCC(=O)N[C@@H](CO)C(=O)O[C@@H]1C (stereo partly drawn) [Brevicidine] ({Hexanoyl(4ξ-Me)}-[dN][dY][dW][dOrn][Orn]G[dOrn]WTIGS; ester 9-C; N-terminus assumed) | exhibits antibacterial activity against strains with polymyxin-resistant lipid A modifications | exhibits antibacterial activity against strains with polymyxin-resistant lipid A modifications | > 40 | 0.078 | 0.078 | 0.078 | accumulation of a tightly bound species and a superimposed saw-tooth profile | indistinguishable from its binding to wt-OMVs; also recorded: identical response to wt-OMVs and resistant-OMVs | 1.09 (0.20) h | 1.17 (0.57) h | approximately 1 h |
| Colistin | – | – | – | – | – | – | dominated by the accumulation of tightly bound polymyxin B and a superimposed saw-tooth profile associated with transient binding | – | – | – | – |
